Data: US12714678B2, “Peptides and methods of treating sepsis, atherosclerosis, thrombosis, stroke, heart attack and inflammation” (THE BOARD OF TRUSTEES OF THE UNIVERSITY OF ILLINOIS, priority 2019, dated 2026)
Where a SMILES comes first, the peptide text is derived from it. Where no end group is shown, it is not given here. The star is where a group is joined. Myristoyl = CCCCCCCCCCCCCC(=O)*

What was measured:
C57/BL6 mice = assay: Reverse passive Arthus (rpA) reaction; assay type: in vivo, mouse; conditions: 5 μmol/kg, vs scrambled peptide
Protocol: C57/BL6 mice were anesthetized by i.p. injection of a mixture of ketamine and xylazine (100 mg/kg and 16 mg/kg mouse weight), and the medial surface of the mouse back was shaved. Shaved mice received intradermal injections of rabbit anti-bovine serum albumin (BSA) antibody (6 μg/μL, MP Biomedicals, OH) in 25 μL of 0.9% NaCl, followed by i.v. injection of BSA (75 μg/g mouse weight) as well as the peptide inhibitors (5 μmol/kg mouse weight) in 100 μL sterile 0.9% NaCl. In addition, control sites received 25 μL of PBS in parallel. Four hours after injection, mice were euthanized and inflamed or control skin samples at each injection site were collected. The hemoglobin (Hb) contents in the skin samples were quantified by hemoglobin colorimetric assay kit (Cayman Chemical, Ann Arbor, MI).

C57BL/6 mice [1] = assay: Tail bleeding time; conditions: M3mP6 HLPN 10 μmol/kg; aspirin 4.3 mg/kg; clopidogrel 4 mg/kg; ticagrelor 3 mg/kg; cangrelor 30 μg/kg; MB2mP6
C57BL/6 mice [2] = assay: Cecal ligation and puncture (CLP) sepsis model; assay type: in vivo, mouse; conditions: bolus 2.5 μmol/kg then 1.25 μmol/kg/hour i.v.
Protocol: CLP sepsis was induced as described previously (32, 33). In brief, mice (14- to 16-week-old with equal number of each gender) were anesthetized by intraperitoneal administration of ketamine (100 mg/kg body weight) and xylazine (8 mg/kg). After a midline laparotomy, the cecum was ligated at about 1 cm from the end and then subjected to a double “through and through” perforation with an 18-gauge needle. Sham-operated mice underwent the same procedure except for ligation and puncture of the cecum. After the procedure, an analgesic (buprenorphine, 0.1 mg/kg, s.c.) was given immediately and every 12 h thereafter for 3 d. At these time points, fluid resuscitation (prewarmed 0.9% NaCl, 0.05 ml/g body weight) was given through subcutaneous injection to prevent fluid loss and help the recovery of body temperature. […] The survival of mice was observed every 6 h for 8 days and analyzed by the Log Rank test (using Prism GraphPad software (ver. 5.0), San Diego, CA, USA). […]
Twenty-four hours after CLP, mouse blood was collected and added to an EDTA-rinsed microcentrifuge tube or citrate buffer. […] The kidney function markers BUN, creatinine and cystatin C and mouse liver function marker ALT were detected using corresponding kits according to the manufacturers' instructions. […]

| inflammation-induced hemorrhage (C57/BL6 mice) | tail bleeding time vs normal control (C57BL/6 mice [1]) | Compound | survival rate at 192 h (8 days), infusion immediately after CLP (C57BL/6 mice [2]) |
| --- | --- | --- | --- |
| neither affected | neither affected | CCCCCCCCCCCCCC(=O)N[C@@H](Cc1ccccc1)C(=O)N[C@@H](CCC(=O)O)C(=O)N[C@@H](CCCCN)C(=O)N[C@@H](CCC(=O)O)C(=O)N[C@@H](CCCCN)C(=O)N[C@@H](CC(C)C)C(=O)O [MB2mP6, Myr-FEKEKL] (Myristoyl-FEKEKL-OH; C-terminus assumed) | – |
| – | – | Myr-EFKKLE (Myristoyl-EFKKLE) [control peptide, scrambled control for MB2mP6 in micellar nanoparticle formulation (CLP study)] | 26% |
